These results are taken from patent US20260265298A1, “PEPTIDE SUBSTRATES AND INHIBITORS OF CATHEPSIN B” (The Regents of the University of California, priority 2023, published 2026).

[ ]: non-standard residue; d: D form. The star is where a group is joined. AMC = Cc1cc(=O)oc2cc(N*)ccc12; Nle = CCCC[C@H](N)C(=O)O; Cbz = O=C(OCc1ccccc1)*

What all share (assay type): biochemical
In experiment [1] the target is T1, cathepsin B in homogenates of mouse microglia BV2 cells (Mus musculus, UniProt P10605).
T1 construct: homogenates of human neuroblastoma cell lines, SHSY-5Y and SK-N-MC, and mouse microglia cell line, BV2; endogenous in cells; host or cells: BV2 mouse microglia cells (homogenate; cytosol fraction in the low nutrient stress assay)
The experiment can be described thus: Cathepsin B (CA-074-sensitive) activity in mouse microglia cell homogenates. To be noted: for cathepsin B activity detected in cell homogenate: pH 4.6; for monitoring of cathepsin B (CA-074-sensitive) activity in cell homogenate: pH 4.6, 5.5, 7.2. The method, then: (§1) Cathepsin B activity in human neuroblastoma and mouse microglia. Characterization of Z-Nle-Lys-Arg-AMC substrate in proteolytic activity assays for specific cathepsin B activity of cell homogenates (prepared in 0.32 M sucrose) was conducted at 40 mM citrate phosphate pH 4.6, 5.5, and 7.2, 5 mM DTT, 1 mM EDTA, 100 mM NaCl, 1.2% DMSO, and homogenates of human neuroblastoma cell lines, SHSY-5Y and SK-N-MC, and mouse microglia cell line, BV2. A concentration of 6 μM Z-Nle-Lys-Arg-AMC, Z-Arg-Arg-AMC, and Z-Phe-Arg-AMC substrates were used in the proteolytic activity assays. Cell homogenates were diluted 1:10 prior to addition to assays. […] Assays were performed in 96-well plates at room temperature (25° C.) in a total volume of 100 μl with triplicates. Cell homogenates were incubated with CA-074 or inhibitor controls at RT for 30 minutes in the absence of substrate, followed by addition of substrate and incubation at 37° C. Fluorescence was quantified at 15, 30, and 60 minutes after substrate was added, by a Biotek Synergy HTX microplate reader with excitation at 360 nm, and emission at 460 nm, gain 50, top optics and read height at 1 mm. Prism GraphPad software was used to analyze data.

The target of experiment [2] is T2, cathepsin B in homogenates of human neuroblastoma SHSY-5Y and SK-N-MC cells (Homo sapiens, UniProt P07858).
T2 construct: homogenates of human neuroblastoma cell lines, SHSY-5Y and SK-N-MC, and mouse microglia cell line, BV2; endogenous in cells; host or cells: SH-SY5Y and SK-N-MC human neuroblastoma cell homogenates
The experiment in a line: Cathepsin B (CA-074-sensitive) activity in human neuroblastoma cell homogenates. The settings on record: for cathepsin B activity detected in cell homogenate: pH 4.6; for monitoring of cathepsin B (CA-074-sensitive) activity in cell homogenate: pH 4.6, 5.5, 7.2. As for the experimental part:
as §1

Experiment [3] deals with T3, human cathepsin B (Homo sapiens, UniProt P07858).
T3 construct: purchased R & D Systems 953-CY-010
The experiment can be described thus: Cathepsin B activity with fluorogenic Z-peptide-AMC substrates (specific activity, pH profile). To be noted: for cleavage by cathepsin B: pH 4.6 and 7.2, 40 μM substrate ('Table 1' comparison). As for the experimental part:
(§2) Cathepsin B activity with Z-Arg-Arg-AMC and Z-Phe-Arg-AMC substrates at pH 4.6 and 7.2. Cathepsin B (0.04 ng/μL) activity was assessed with Z-Arg-Arg-AMC and Z-Phe-Arg-AMC substrates (40 μM final concentration) (Table 1) in 40 mM citrate phosphate buffer pH 4.6 or Tris-HCl pH 7.2 in 1 mM EDTA, 100 mM NaCl, and 5 mM DTT with incubation at room temperature (25° C.) in triplicate and AMC fluorescence readings per second (RFU/s) (excitation 360 nm, emission 460 nm) were recorded over a period of 30 min by BioTek Synergy HTX plate reader (Software Version 3.08.01). Enzyme initial velocity was calculated using the highest slope recorded for 10 consecutive fluorescent readings within the initial 30 min. The mean and standard deviation (SD) were determined from triplicates. RFU/s were converted to pmol/min/μg (specific activity) using AMC standard curves. All data were plotted, calculated, and analyzed using GraphPad Prism (Version 9.4.1).
Analysis of pH-dependent cathepsin B activity with fluorogenic substrates designed from MSPMS data. For comparison of cathepsin B activity at pH 4.6, pH 5.5, and pH 7.2 with multiple fluorogenic substrates, cathepsin B (0.04 ng/μL) was incubated with 40 μM substrates consisting of Z-Lys-Arg-AMC. Z-Phe-Arg-AMC. Z-Arg-Arg-AMC. Z-Gly-Lys-Arg-AMC, Z-Val-Lys-Arg-AMC, Z-Tyr-Lys-Arg-AMC. Z-Phe-Lys-Arg-AMC, Z-Trp-Lys-Arg-AMC, Z-Leu-Lys-Arg-AMC, Z-Ala-Lys-Arg-AMC, Z-Nle-Arg-Arg-AMC, and Z-Nle-Lys-Arg-AMC. AMC product formation (RFU/s) was monitored in 40 mM citrate phosphate, pH 4.6 and pH 7.2, 1 mM EDTA, 100 mM NaCl, and 5 mM DTT was determined from the average of RFU/s triplicates at each pH condition.
For analysis of pH-dependent activity cathepsin B (0.04 ng/μL), proteolytic activity was monitored over the pH range of pH 2.2-9.0 in 40 mM citrate phosphate (pH 2.2 to pH 6.6) and 40 mM Tris-HCl (pH 7.0 to 9.0), 1 mM EDTA, 100 mM NaCl, and 5 mM DTT, with preincubation in each pH buffer for 10 min prior to initiating the assay by addition of Z-Nle-Lys-Arg-AMC, Z-Arg-Arg-AMC, or Z-Phe-Arg-AMC to a final concentration of 40 μM to generate the pH curve data.

The target of the next experiment is T4, cathepsin S (Homo sapiens, UniProt P25774).
T4 construct: purchased R & D Systems 1183-CY-010
The experiment can be described thus: Substrate selectivity: cleavage of AMC substrates by cathepsin S. The method, then:
as §2
(§3) […] Z-Arg-Arg-AMC, and Z-Nle-Lys-Arg-AMC, activity was monitored in 40 mM citrate phosphate (pH 4.6, pH 5.5 and pH 7.2), 1 mM EDTA, 100 mM NaCl, and 5 mM DTT for cathepsin B (0.04 ng/μL), cathepsin K (0.03 ng/μL), cathepsin L (0.03 ng/μL), cathepsin S (0.14 ng/μL), cathepsin V (0.04 ng/μL), and cathepsin X (0.20 ng ng/μL). Since cathepsin X cannot cleave any of the AMC substrates, MCARPPGFSAFK(Dnp)-OH (R & D Systems #ES005) was used to verify that cathepsin X was active.

For the next experiment, the target named is T5, cathepsin L (Homo sapiens, UniProt P07711).
T5 construct: active cathepsin L (R & D Systems, #952-CY-010); purchased R & D Systems 952-CY-010
The experiment in a line: Substrate selectivity: cleavage of AMC substrates by cathepsin L. As for the experimental part: [Worded in the source for another target; used here, by the source, with some conditions changed.] as §2
For evaluation of cathepsin B and cysteine cathepsins for substrate selectivity each cathepsin was incubated with 4 μM substrates consisting of Z-Phe-Arg-AMC. Z-Arg-Arg-AMC, and Z-Nle-Lys-Arg-AMC, activity was monitored in 40 mM citrate phosphate (pH 4.6, pH 5.5 and pH 7.2), 1 mM EDTA, 100 mM NaCl, and 5 mM DTT for cathepsin B (0.04 ng/μL), cathepsin K (0.03 ng/μL), cathepsin L (0.03 ng/μL), cathepsin S (0.14 ng/μL), cathepsin V (0.04 ng/μL), and cathepsin X (0.20 ng ng/μL). Since cathepsin X cannot cleave any of the AMC substrates, MCARPPGFSAFK(Dnp)-OH (R & D Systems #ES005) was used to verify that cathepsin X was active.

In the next experiment the target is T6, cathepsin V (Homo sapiens, UniProt O60911).
T6 construct: purchased R & D Systems 1080-CY-010
The experiment in a line: Substrate selectivity: cleavage of AMC substrates by cathepsin V. As for the experimental part: as §2, §3

For a further experiment, the target named is T7, cathepsin K (Homo sapiens, UniProt P43235).
T7 construct: active cathepsin K (Abcam, #ab157067); purchased Abcam ab157067
T7 sequence (P43235 115-329): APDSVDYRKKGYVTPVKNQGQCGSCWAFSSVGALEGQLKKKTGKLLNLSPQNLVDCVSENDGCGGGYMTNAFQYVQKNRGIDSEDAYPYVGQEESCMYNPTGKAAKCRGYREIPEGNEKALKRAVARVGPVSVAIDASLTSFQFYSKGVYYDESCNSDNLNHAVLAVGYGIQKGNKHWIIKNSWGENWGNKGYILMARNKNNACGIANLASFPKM
The experiment can be described thus: Substrate selectivity: cleavage of AMC substrates by cathepsin K.

A further experiment deals with T8, mouse cathepsin B (Mus musculus, UniProt P10605).
T8 construct: purchased R & D Systems 965-CY-010
The experiment can be described thus: Mouse cathepsin B specific activity with AMC substrates. The settings on record: pH 4.6, 5.5 and 7.2; 40 μM substrate. As for the experimental part: FIGS. 11a-11b. […] (FIG. 11a) pH-dependence of mouse cathepsin B activity with Z-Nle-Lys-Arg-AMC compared to Z-Arg-Arg-AMC and Z-Phe-Arg-AMC substrates. Cathepsin B specific activity with the three different substrates (40 μM) were assessed at pH 4.6, 5.5, and 7.2. Data points are shown as the mean+SD (n=3).

For experiment [4], the target named is T3, human cathepsin B. The experiment in a line: Cathepsin B activity with fluorogenic Z-peptide-AMC substrates (specific activity, pH profile). To be noted: pH 4.6 and pH 7.2; substrates at 4 μM (FIG. 3).
Where [5] appears, read: CA-074 1 μM, 30 min pre-incubation.
[6] abbreviates: pH 4.6 and 7.2, 40 μM substrate ('Table 1' comparison).
[7] abbreviates: pH 4.6, 5.5 and 7.2 (FIGS. 5a-5c).

T6 sequence (O60911 114-334): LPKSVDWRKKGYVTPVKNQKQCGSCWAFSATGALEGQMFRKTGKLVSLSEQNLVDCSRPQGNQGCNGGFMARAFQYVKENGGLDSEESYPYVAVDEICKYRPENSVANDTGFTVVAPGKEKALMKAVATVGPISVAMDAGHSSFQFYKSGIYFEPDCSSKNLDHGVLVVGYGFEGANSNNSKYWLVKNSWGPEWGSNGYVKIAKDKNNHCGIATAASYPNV
T5 sequence (P07711 114-333): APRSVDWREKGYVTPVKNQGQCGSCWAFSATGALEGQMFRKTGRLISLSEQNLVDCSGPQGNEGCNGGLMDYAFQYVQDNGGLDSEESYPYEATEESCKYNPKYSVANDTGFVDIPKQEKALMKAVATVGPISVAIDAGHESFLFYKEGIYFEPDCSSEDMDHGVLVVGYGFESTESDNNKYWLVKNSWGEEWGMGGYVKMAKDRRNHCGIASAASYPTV
T1 sequence (P10605 80-333): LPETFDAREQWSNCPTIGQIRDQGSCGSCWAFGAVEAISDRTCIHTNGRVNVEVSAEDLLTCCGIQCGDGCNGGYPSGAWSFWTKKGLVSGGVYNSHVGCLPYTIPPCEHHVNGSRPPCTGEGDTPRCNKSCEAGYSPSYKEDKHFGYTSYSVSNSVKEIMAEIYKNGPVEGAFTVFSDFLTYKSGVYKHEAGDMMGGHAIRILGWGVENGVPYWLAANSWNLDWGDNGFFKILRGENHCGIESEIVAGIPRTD
T8 sequence (P10605 80-333 limits assumed): as the sequence (P10605 80-333) above
T4 sequence (P25774 115-331): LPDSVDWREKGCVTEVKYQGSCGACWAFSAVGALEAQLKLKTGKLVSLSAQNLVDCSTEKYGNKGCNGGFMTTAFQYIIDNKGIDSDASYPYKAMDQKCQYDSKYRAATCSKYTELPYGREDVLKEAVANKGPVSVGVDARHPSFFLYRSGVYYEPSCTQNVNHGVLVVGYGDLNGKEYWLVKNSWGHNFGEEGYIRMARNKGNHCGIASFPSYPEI

As to `CCCNC(=O)[C@H]1O[C@@H]1C(=O)N[C@H](C(=O)N1CCC[C@H]1C(=O)O)[C@@H](C)CC` [CA-074], the “effect on cathepsin B activity in cell homogenate” value in [1] (setting [5]) and in [2] (setting [5]) was “inhibition” throughout.

As to Cbz-[Nle]-Arg-Arg-{AMC}, the “less activity compared to Z-Nle-Lys-Arg-AMC” value is “about 30%” at human cathepsin B [3] (pH 4.6) and around 50% at human cathepsin B [3] (pH 7.2).

Turning to Cbz-Arg-Arg-{AMC}, the “cathepsin B activity detected in cell homogenate” value in experiment [1] and in experiment [2] was “none or little activity” in each case. The “monitoring of cathepsin B (CA-074-sensitive) activity in cell homogenate” value (from here on “monitoring of cathepsin B”) in [1] and in [2] was “only low cathepsin B activity” each time. For the same compound, the “cleavage by cathepsin S” value at cathepsin S (setting [6]) is “cleaved by cathepsin B and other cysteine cathepsins L, K, S, and V”. In addition, the “cleavage by cathepsin L” value is “cleaved by cathepsins L and V” at cathepsin L (setting [7]); “cleaved by cathepsin B and other cysteine cathepsins L, K, S, and V” at cathepsin L (setting [6]). For the same compound, the “cleavage by cathepsin B at acidic pH” value at human cathepsin B [3] (pH 4.6, 40 μM substrate) is on record as “poor cleavage activity”. Further, the “cleavage by cathepsin B” value on human cathepsin B [3] was “cleaved by cathepsin B and other cysteine cathepsins L, K, S, and V”. Moreover, the “specific activity at acidic pH as fraction of specific activity at neutral pH” value at human cathepsin B [3] (pH 4.6 vs pH 7.2) is “one-third”. Also, at human cathepsin B [3] (pH 7.2, 40 μM substrate), the “cleavage by cathepsin B at neutral pH” value is “readily cleaved”. Also, the “cleavage by cathepsin V” value at cathepsin V (setting [7]) was “cleaved by cathepsins L and V”; on cathepsin V (setting [6]) it was “cleaved by cathepsin B and other cysteine cathepsins L, K, S, and V”. Moreover, the “cleavage by cathepsin K” value at cathepsin K (setting [6]) is “cleaved by cathepsin B and other cysteine cathepsins L, K, S, and V”. At mouse cathepsin B, the “mouse cathepsin B specific activity” value is on record as “low”.

Regarding Cbz-Lys-Arg-{AMC}, on human cathepsin B [4], the “cathepsin B specific activity compared among substrates” value is given as “lower activity than Z-Nle-Lys-Arg-AMC”.

With Cbz-[Nle]-Lys-Arg-{AMC}, the “cathepsin B activity detected in cell homogenate” value in experiment [1] and in experiment [2] was “robust cathepsin B activity” throughout. The “monitoring of cathepsin B” value in experiment [1] and in experiment [2] was “highly sensitive for monitoring cathepsin B activity” throughout. At cathepsin S (setting [7]), the “cleavage by cathepsin S” value is “not cathepsins L. K. S, and V activities”. On cathepsin L (setting [7]), the “cleavage by cathepsin L” value was “not cathepsins L. K. S, and V activities”. Also, the “pH of maximal activity” value at human cathepsin B [3] (pH profile pH 2 to 9) is listed as 5.5-6.5 pH. In addition, the “cleavage by cathepsin V” value on cathepsin V (setting [7]) was “not cathepsins L. K. S, and V activities”. The “cathepsin B specific activity compared among substrates” value on human cathepsin B [4] is “higher than all other substrates at both pHs”. Also, at cathepsin K (setting [7]), the “cleavage by cathepsin K” value was “not cathepsins L. K. S, and V activities”. Moreover, at mouse cathepsin B, the “mouse cathepsin B specific activity” value is listed as “highest specific activity”.

For the compound Cbz-Leu-Lys-Arg-{AMC}, the “cathepsin B specific activity compared among substrates” value at human cathepsin B [4] is “less activity than Z-Nle-Lys-Arg-AMC”.

Take Cbz-Phe-Arg-{AMC}: the “monitoring of cathepsin B” value in experiment [1] and in experiment [2] was “detected cathepsin B as well as other cysteine cathepsin activity” each time. In addition, the “cleavage by cathepsin S” value at cathepsin S (setting [6]) was “cleaved by cathepsin B and other cysteine cathepsins L, K, S, and V”. Besides, the “cleavage by cathepsin L” value on cathepsin L (setting [7]) was “cleaved by cathepsin L with greater activity than that for cathepsin B”; at cathepsin L (setting [6]) it was “cleaved by cathepsin B and other cysteine cathepsins L, K, S, and V”. Moreover, on human cathepsin B [3], the “cleavage by cathepsin B” value is “cleaved by cathepsin B and other cysteine cathepsins L, K, S, and V”. Moreover, the “cleavage by cathepsin V” value on cathepsin V (setting [7]) was “also cleaved by cathepsins K and V”; at cathepsin V (setting [6]), “cleaved by cathepsin B and other cysteine cathepsins L, K, S, and V”. Further, the “cleavage by cathepsin K” value on cathepsin K (setting [7]) was “also cleaved by cathepsins K and V”; on cathepsin K (setting [6]) it was “cleaved by cathepsin B and other cysteine cathepsins L, K, S, and V”. In addition, the “mouse cathepsin B specific activity” value on mouse cathepsin B was “moderate specific activity”.
